Consider three compounds from PMC10628858, “Investigation of new ferrocenyl-artesunate derivatives as antiparasitics” (Dalton Transactions (Cambridge, England : 2003), 2023).

A value given as a limit tells only on which side of the number the result lay.

A short description of series [1]: Kinetic aqueous solubility, turbidimetric assay. In kind it is physicochemical. The conditions noted are these: turbidimetric assay, buffer not named. On the procedure: The kinetic solubility of the complexes was determined by means of a turbidimetric assay. The complexes were first dissolved in dimethyl sulfoxide (DMSO) which was then serially diluted in either phosphate buffered saline (PBS) or 4-(2-hydroxyethyl)-1-piperazineethanesulfonic acid (HEPES). The extent of precipitation was then measured using the absorbance at 620 nm.
PBS was prepared by dissolving one PBS tablet in 200 mL of distilled water at 25 °C yielding a buffered solution containing 10 mM phosphate buffer, 3.0 mM KCl and 140 mM NaCl. The pH was then confirmed to be at 7.4 with a pH meter. A 0.025 M HEPES buffer was prepared by dissolving HEPES free acid 5.00 mmol in distilled water (±180 mL) and titrating the solution with 0.100 M NaOH until a pH 7 was reached, the volume was then made up to 200 mL using distilled water. A 10.0 mM stock of each drug was prepared in DMSO. […] 4 μL of the drugs was then pipetted into a 96-well plate loaded with 196 μL of either the desired buffer solution or DMSO. The test plates were then incubated at 37 °C for 4 hours following which the UV-Vis absorbance was measured at 620 nm and the absorbances corrected by subtracting the blank.

A further series relates to P. falciparum, NF54. In words: P. falciparum growth inhibition assay (Malstat). The class given is cell-based, Plasmodium falciparum. The following applies: 72 h, maximum concentration tested 6000 nM, three independent experiments in triplicate, ± SEM; read-out: IC50 against P. falciparum, NF54. The method, then: The antimalarial activities of C1 to C4 and F1 to F3 were determined against the wild-type drug sensitive strain of P. falciparum, NF54. […]. Further, a close link between activity and oxidation potentials of the drugs was found. The lower the oxidation potential of the ferrocene moiety, the higher the activity of the final compound, giving directions for future compound development.
The drugs were prepared as 10 mM stocks in sterile DMSO. The drugs were then diluted using freshly prepared growth medium to the desired testing concentrations. Chloroquine and artesunate were used as standards. A full dose–response was preformed using a 96-well plate assay and the IC50 values determined. The maximum concentration tested was 6 μM which was then serially diluted 2-fold in growth media. The plates were incubated at 37 °C for 72 h at 3% O2 and 4% CO2. After 72 h the wells were resuspended and 15 μL of the suspension was transferred to a duplicate plate containing 100 μL of Malstat reagent and 25 μL of nitroblue tetrazolium solution. The plates were allowed 20 minutes in the dark to develop and the absorbance of each well was measured using UV-Vis at 620 nm.

A further series relates to PNT1A cells. In words: MTT cell viability assay, PNT1A. The class given is cell-based, human. The conditions noted are these: 48 h. On the procedure:
To assess the cytotoxicity of the four compounds a MTT cell viability assay using human embryonic kidney (HEK293) and human prostatic (PNT1A) cell lines were performed. […] The long chain compounds C1 and C3 were also shown to be non-cytotoxic towards the HEK293 cell line.
The immortalised human prostatic epithelial cell line, PNT1A (Sigma Aldrich, 95012614) was cultured in RPMI-1640 containing 10% foetal calf serum (Life Technologies, South Africa). The human embryonic kidney cell line HEK293 (ATCC) was cultured in DMEM (Life Technologies, South Africa). Both cell lines were cultured at 37 °C under 5% CO2 with 1% penicillin and streptomycin. Cancer cell cytotoxicity was evaluated using the MTT viability assay according to our previous method.[49] Briefly, cells were seeded at a density of 3 × 10^3 cells per well in 96-well plates and allowed to settle overnight. A 100 mM stock of C1/C2 and a 50 mM stock solution of C3/C4 in DMSO was prepared from which dilutions were made. The compound was then added to the cells in triplicate to obtain the indicated concentrations and 0.1% DMSO. Controls included cells treated with […] DMSO alone. After 48 h, 10 μL of 5 mg mL^−1 MTT (3-(4,5-dimethylthiazol-2-yl)-2,5-diphenyltetrazolium bromide) (Sigma-Aldrich) was added, and incubated with the cells for 4 h, followed by addition of 100 μL 10% SLS, 0.01 M HCL. The plates were read at 595 nm on a Multiscan FC plate reader (Thermo Scientific) and the data was fitted to a variable slope dose–response curve using Graphpad prism v6 to obtain the cytotoxicity IC50. The assay was repeated independently three times where inhibition was observed.
Background: Tetrazolium assays rely on reduction of a dye to a coloured formazan, in cell work by metabolically active cells.

Series [2] is described as follows: Stability on HPLC in an aqueous environment. In kind it is physicochemical. The conditions noted are these: aqueous environment (H2O/MeOH). The method, then: Resonances belonging to the unsubstituted cyclopentadienyl ring of the ferrocene appeared as a singlet between 4.17 and 4.20 ppm and two triplets which correspond to the substituted ring.
Purity analysis was performed on an Agilent 1260 Infinity II high-performance liquid chromatography (HPLC) system with a DAD detector. A Kinetex C18 100 Å column was used with dimensions, 150 × 4.6 mm with a 5 μm […]. A mobile phase of (A) H2O (B) MeOH was used at gradients of t = 0 min 10% B, t = 15 min 80% B, t = 35 min 80% B, t = 37 min 10% B and t = 45 min 10% B over a 45 min period. The flow rate was set to 1 mL min^−1, and the detection wavelength was set at 260 nm with the reference wavelength at 360 nm. 50 μL sample was injected, with needle washes of MeOH between injections. The peaks were manually integrated to gain the percentage area. Samples were dissolved in 10% MeOH/90% H2O at 100 μM concentrations.

Series [3] concerns P. falciparum Dd2 (chloroquine resistant). Also noted: method as in doi:10.1016/j.jorganchem.2023.122633. The conditions noted are these: chloroquine resistant strain; cited from earlier work.
The test system of another series is T. gondii (ΔKu80:mNeon). In words: Immunofluorescence microscopy of intracellular T. gondii. The conditions noted are these: 5 μM; for Parasite replication: 24 hours. In kind it is cell-based, Toxoplasma gondii. The method, then: To determine morphological changes associated with drug treatment, immunofluorescence microscopy of T. gondii was performed after 24 hours or 48 hours of drug treatment at a concentration of 5 μM.
Since artemisinin has previously been reported to accumulate in the membrane of P. falciparum due to its affinity for neutral lipids,[46] it was hypothesized that the complex C3 may be doing the same thing in T. gondii. Then, upon activation of the endoperoxide bridge, this causes oxidative damage to the membranes, leading to disruption and release of parasite cytosolic contents.
Coverslips preseeded with HFF cells were infected with ΔKu80:mNeonGreen and incubated at 37 °C for 1 h to allow invasion. Following this, drug (5 μM) was added, and the plates placed back in the incubator for 24 hours. Cells were washed with 1 mL of sterile PBS, which was then again removed and 500 μL of 4% paraformaldehyde (PFA) was added and incubated at room temperature for 20 minutes. The PFA was removed, cell washed once with PBS. Cells were blocked and permeabilisated with incubation 500 μL of 2% bovine serum albubin (BSA), 0.5% Triton X-100 in PBD overnight at 4 °C. The coverslips were then removed and submerged in distilled water three times and mounted using Fluoromount with DAPI (Southern Biotech). The slides were then visualized using a DeltaVision fluorescent microscope (Applied Precision) and processed using SoftWoRx and FIJI software.

For orientation: Aqueous solubility means how much of the substance goes into solution per volume. What is called IC50 is the concentration that gives 50% inhibition. On to `CC1CCC2C(C)C(OC(=O)CCC(=O)NC[c-]3cccc3)OC3OC4(C)CCC1C32OO4.[Fe+2].c1cc[cH-]c1` (centres unmarked) [Compound C4], for which, in series [1], the “Aqueous solubility” value was 5 to 10 µM and the “Solubility range” value was in the range of 3 to 6 µg/mL. Besides, in the series on P. falciparum, NF54, the IC50 came to 0.012 ± 0.002 µM. For the same compound, the IC50 in the series on PNT1A cells was > 50 µM. In addition, in series [2], the “Stability on HPLC” value was “high degree of instability”. Further, the “Activity against P. falciparum Dd2” value in series [3] is reported as 3.0 nM.
Take `CC1CCC2C(C)C(OC(=O)CCC(=O)OCCNC(=O)[c-]3cccc3)OC3OC4(C)CCC1C32OO4.[Fe+2].c1cc[cH-]c1` (centres unmarked) [Compound C1]: the “Solubility range” value in series [1] was in the range of 25 to 51 µg/mL. The Parasite replication entry in the series with T. gondii (ΔKu80:mNeon) is given as “completely block replication”. Also, the IC50 is 3.4 ± 0.53 µM with P. falciparum, NF54 and > 100 µM in the series with PNT1A cells.
`CC1CCC2C(C)C(OC(=O)CCC(=O)NCCNC(=O)[c-]3cccc3)OC3OC4(C)CCC1C32OO4.[Fe+2].c1cc[cH-]c1` (centres unmarked) [Compound C3]: in series [1], the “Aqueous solubility” value was in the range of 5 to 10 µM and the “Solubility range” value was 3 to 6 µg/mL. Further, the Parasite replication entry in the series on T. gondii (ΔKu80:mNeon) is recorded as “completely block replication”. In the series on T. gondii (ΔKu80:mNeon) (24 hours or 48 hours), the Parasite morphology entry was “novel morphology”. The IC50 in the series with P. falciparum, NF54 came out at 4.9 ± 0.93 µM. For the same compound, the IC50 in the series with PNT1A cells is > 50 µM. The “Stability on HPLC” value in series [2] is recorded as “high degree of instability”.
